From patent publication US20160220524A1, “COMPOSITIONS OF SMALL MOLECULE THERAPEUTICS” (NEXMED HOLDINGS, INC., priority 2015, published 2016)
Where a name gives a salt, the structure may show the parent alone.

Legend:
[1] = Protocol: The compounds from BCS Class 2, 3 and 4 were each formulated at 5 mg/ml in a liquid carrier of either an aqueous solution of polyethylene glycol 400 (20% PEG 400), or an aqueous solution of DDAIP-HCL (20%). […] Cohorts of three animals per group were placed in the study. On day 1, animals from each group were dosed at 30 mg/kg (6 ml/kg) by oral gavage (PO). Animals were fed at the time of dosing. Serial blood samples were collected at pre-dose, and after post-dose intervals of 30 minutes, 1 hour, 2 hours and 4 hours. The blood samples were collected into lithium heparin-coated tubes. At each time point, 0.15 ml of blood was collected via left jugular vein cannulae and processed for collection of plasma by centrifuging at approximately 2,000 rpm for approximately 10 minutes. The cellular fraction of the blood was discarded. Collection times and volume of plasma samples were recorded and tabulated. Plasma samples were transferred into clean tubes and snap frozen onto dry ice. Samples were stored at −80° C. until ready for bio-analysis by LC/MS/MS. The drug concentration was measured from supernatant after centrifugation of the dosing solution
[2] = water; cited from earlier work
P-glycoprotein (P-gp) = P-glycoprotein (P-gp) (Homo sapiens, UniProt P08183); assay: Inhibition of P-glycoprotein; type: in vitro ADME; conditions: up to 10 mM
Chain of P-glycoprotein (P-gp) (P08183 whole entry): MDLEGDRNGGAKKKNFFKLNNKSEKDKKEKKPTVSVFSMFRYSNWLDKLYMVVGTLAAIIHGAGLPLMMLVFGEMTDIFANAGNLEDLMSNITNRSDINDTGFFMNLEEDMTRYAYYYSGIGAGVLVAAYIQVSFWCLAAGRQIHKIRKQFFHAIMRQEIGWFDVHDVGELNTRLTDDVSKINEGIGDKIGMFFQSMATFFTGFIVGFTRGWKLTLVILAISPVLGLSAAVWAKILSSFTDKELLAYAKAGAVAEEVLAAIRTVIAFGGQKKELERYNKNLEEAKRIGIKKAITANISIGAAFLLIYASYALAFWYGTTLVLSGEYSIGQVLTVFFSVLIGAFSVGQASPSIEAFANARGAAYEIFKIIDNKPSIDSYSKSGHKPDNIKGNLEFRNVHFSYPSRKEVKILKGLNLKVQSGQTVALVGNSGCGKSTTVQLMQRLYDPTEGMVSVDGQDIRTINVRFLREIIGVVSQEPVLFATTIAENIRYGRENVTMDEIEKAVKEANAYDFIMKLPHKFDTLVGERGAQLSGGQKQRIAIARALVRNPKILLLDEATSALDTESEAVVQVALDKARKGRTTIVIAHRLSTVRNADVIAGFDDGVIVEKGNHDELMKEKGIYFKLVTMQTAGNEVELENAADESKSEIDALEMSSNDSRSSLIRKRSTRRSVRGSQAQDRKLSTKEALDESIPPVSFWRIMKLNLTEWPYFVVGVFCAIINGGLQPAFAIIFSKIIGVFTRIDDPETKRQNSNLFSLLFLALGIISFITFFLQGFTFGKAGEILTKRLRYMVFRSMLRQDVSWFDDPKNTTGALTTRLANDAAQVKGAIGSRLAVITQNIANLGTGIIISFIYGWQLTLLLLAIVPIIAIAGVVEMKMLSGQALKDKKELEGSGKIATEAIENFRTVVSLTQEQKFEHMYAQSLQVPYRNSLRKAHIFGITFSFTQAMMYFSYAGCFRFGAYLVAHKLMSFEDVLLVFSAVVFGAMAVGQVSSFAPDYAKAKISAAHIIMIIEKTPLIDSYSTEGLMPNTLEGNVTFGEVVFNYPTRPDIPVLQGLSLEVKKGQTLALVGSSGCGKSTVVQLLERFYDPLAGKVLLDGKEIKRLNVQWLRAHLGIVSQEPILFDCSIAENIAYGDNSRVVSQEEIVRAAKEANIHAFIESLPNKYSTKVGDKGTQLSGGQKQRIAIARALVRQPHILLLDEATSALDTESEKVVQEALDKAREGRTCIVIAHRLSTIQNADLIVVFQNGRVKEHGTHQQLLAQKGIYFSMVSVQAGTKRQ

Sol. over PEG (solubility improvement fold over PEG 400) [1] | form of the 5 mg/ml formulation (suspension or solution) [1] | inhibition of P-glycoprotein (P-gp) (P-glycoprotein (P-gp)) | Structure (SMILES) | Sol. H2O (reported solubility from the literature) [2]
>446 fold | suspensions | – | O=C(O)c1cc(/N=N/c2ccc(S(=O)(=O)Nc3ccccn3)cc2)ccc1O [Sulfasalazine, sulfasalazine] | 10 µg/mL
– | suspensions | – | O=C(CCCN1CCC(O)(c2ccc(Cl)cc2)CC1)c1ccc(F)cc1 [Haloperidol, haloperidol] | 1 µg/mL
– | – | – | N[C@H]1C(O)O[C@H](CO)[C@@H](O)[C@@H]1O (stereo partly drawn) [Glucosamine, glucosamine] | 551000 µg/mL
>363 fold | – | – | NS(=O)(=O)c1cc2c(cc1Cl)N=CNS2(=O)=O [Chlorothiazide, chlorothiazide] | 300 µg/mL
– | – | no inhibition | CCCCCCCCCCCCOC(=O)C(C)N(C)C (stereo not drawn) [DDAIP-HCL, dodecyl 2-(N,N-dimethylamino) propionate] | –
